According to publication PMC12503906, “Novel Pyrazolo [1,5‐a]−1,3,5‐Triazine Derivatives as CDK7 Inhibitors: Synthesis and Biological Insights in Pancreatic Ductal Adenocarcinoma Models” (Chemmedchem, 2025):
Read-outs that look alike come from different tables or passages of the source.

What was measured:
Assay type in all cases: cell-based
PATU‐T [1] = assay: Wound healing assay, PATU‐T; settings: 1 × IC50 and 4 × IC50, 4 to 24 h
Description: The wound healing assay was used to test the migratory ability of the selected cells post‐treatment. Cells (5 × 10^4 /well) were seeded on 96‐well. After 24 h, cells reached the optimal 100% confluency, and an artificial wound was created with a 96‐well Pintool Scratcher. The cells were immediately washed with complete medium, in order to remove cell debris after the scratch, and images of the wells were captured at time 0 h, right before the addition of the treatment. Each drug (1b and 1g) was previously diluted in the respective medium at two different concentrations: 1 × IC50 and 4 × IC50 (according to the cell specific IC50 value) and were then added to the cells. Images were then taken at timepoints 4, 8, 20, and 24 h using the Leica microscope with a JAI TMC‐137 camera to assess wound closure. The images were analyzed using the Universal Grab 6.3 software (DCILabs), and the obtained data were used to determine the percentage of migration of the cells, using the following formula. (2) % Migration=Mean width of the wound atT=0−Mean width of the wound atT=X/Mean width of the wound atT=0×100

CDK7 = CDK7 (Homo sapiens, UniProt P50613); assay: Kinase activity profiling, PamChip array, CDK7; design: endogenous in cells; host or cells: PDAC3 primary cells; settings: PDAC‐3 primary cells, IC50 concentration, 2 h, Pamgene array
Sequence of CDK7 (P50613 2-346 limits assumed): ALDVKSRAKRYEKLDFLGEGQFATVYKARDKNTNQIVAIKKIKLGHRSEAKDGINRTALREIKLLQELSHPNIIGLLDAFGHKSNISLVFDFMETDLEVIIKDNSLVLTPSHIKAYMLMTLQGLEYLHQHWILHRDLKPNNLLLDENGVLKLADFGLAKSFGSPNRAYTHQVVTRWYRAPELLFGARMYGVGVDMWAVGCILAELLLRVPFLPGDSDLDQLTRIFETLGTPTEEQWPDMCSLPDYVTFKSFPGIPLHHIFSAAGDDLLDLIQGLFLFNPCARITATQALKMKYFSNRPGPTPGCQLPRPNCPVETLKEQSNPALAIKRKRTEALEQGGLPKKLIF
Sequence of CDK7 (P51946 whole entry partner): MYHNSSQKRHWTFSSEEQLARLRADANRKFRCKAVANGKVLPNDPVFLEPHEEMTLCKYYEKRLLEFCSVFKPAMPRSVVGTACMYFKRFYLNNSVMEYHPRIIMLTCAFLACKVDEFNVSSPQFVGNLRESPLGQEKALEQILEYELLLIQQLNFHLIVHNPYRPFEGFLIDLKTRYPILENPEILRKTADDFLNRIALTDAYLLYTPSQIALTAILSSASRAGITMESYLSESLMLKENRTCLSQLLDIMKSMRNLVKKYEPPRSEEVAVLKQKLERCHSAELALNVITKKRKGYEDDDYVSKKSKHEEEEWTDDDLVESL
Sequence of CDK7 (P51948 whole entry partner): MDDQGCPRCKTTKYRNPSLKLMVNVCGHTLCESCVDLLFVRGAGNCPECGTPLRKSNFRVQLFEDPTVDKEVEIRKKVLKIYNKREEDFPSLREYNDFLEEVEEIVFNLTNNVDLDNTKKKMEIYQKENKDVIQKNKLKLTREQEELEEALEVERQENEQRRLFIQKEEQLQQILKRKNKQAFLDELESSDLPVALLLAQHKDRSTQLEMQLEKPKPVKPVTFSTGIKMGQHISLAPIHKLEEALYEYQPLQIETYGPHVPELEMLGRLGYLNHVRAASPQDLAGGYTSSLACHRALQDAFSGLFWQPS
Description: (§1) A Kinase activity profiling was conducted using a PamChip (Pamgene, s‐Hertogenbosch, The Netherlands) array containing 144 peptide substrates specific to tyrosine kinases to assess activity changes upon treatment with compounds 1b and 1g. Experiments were carried out in PDAC3 cells, using biological triplicates comprising three untreated controls and three samples treated for 2 h with either compound at their respective 1 × IC50 concentrations, following protocols adapted from previous studies.^[ [38] ^] Protein concentrations were quantified using the Bio‐Rad protein assay, which is based on the Bradford method (Bio‐Rad, Hercules, CA). For chip loading, protein lysates were adjusted to a final concentration of 10 µg per array and combined with PamGene MasterMix. During the assay, samples were circulated through the array at 30 °C with one cycle per minute over 60 cycles. Fluorescence data acquisition was performed using a 12‐bit CCD camera, capturing real‐time fluorescence intensities. End‐point spot intensities were analyzed using the open‐source software ScanAnalyze, with background normalization applied. Statistical comparisons were performed using student's t‐test in R (version 3.6.1), followed by false discovery rate (FDR) correction.

PATU‐T [2] = assay: SRB chemosensitivity assay, PATU‐T cells; settings: read-out: IC50 PATU‐T
Description: Three lines of immortalized PDAC cells were selected as representative phenotypes: mesenchymal (PATU‐T), quasimesenchymal (PANC‐1), and an epithelial clone of SUIT 2 cells (SUIT 2.28). Cells were cultured in noncoated T‐75 and T‐25 flasks under adherent conditions, using 1× DMEM (Gibco, 41,966,029) for PATU‐T and RPMI (Gibco, 21,875,034) for SUIT 2.28 and PANC‐1, both supplemented with 10% NBCS and 1% P/S. Additional employed models were the PDAC3 cells, a primary cell culture, the PSCs, which were immortalized healthy pancreatic cells, and the PATU‐T‐GR, which was a gemcitabine resistant model of PATU‐T. PDAC3 and PSCs were cultivated using complete RPMI medium, while PATU‐T‐GR required complete DMEM medium. For seeding, cells were detached with Trypsin‐EDTA (0.05%) (GibcoTM, 25,300–096) and were consequently counted using the Automated Cell Counter (Luna‐II, Westburg). Cells were then plated on 96‐ or 6‐well plates depending on the planned experiment.
The Sulforhodamine B (SRB) chemosensitivity assay was used to measure cytotoxicity and cell proliferation post drug treatment. At day 0, 3–6 × 10^3 cells were seeded in a 96‐well plate, depending on the cell line. At day 1, cells were attached and ready to be treated. For the calculation of the IC50, drug dilutions for the compounds 1b, 1c, 1d, 1e, 1g, 1hr, 1i, 1j, and LDC4297 (MedChemExpress, HY‐12,653) were prepared in dilution trays and eight different concentrations were included. These were added in triplicates to the cells, which were then incubated for […] at 37 °C in 5% CO2. During day 1, the control plate was fixed with 50% Trichloroacetic acid (TCA), as intended to be the baseline plate used for the normalization of the data. 72 h post‐treatment, the cells were fixed with TCA, and placed at 4 °C for about 2 h. The plates were then washed with distillated water and left to dry under the hood with ventilation. Subsequently, plates were stained with 0.4% SRB for 15 min and washed with 1% acetic acid to remove excess stain. Once dried again, the protein‐bound SRB was dissolved in 10 mM TRIS, and the plates were placed on a shaker for 10 min per plate. Lastly, the absorbance was measured at 492 nm with a spectrophotometer (Synergy HT, BioTek). The absorbance data obtained were normalized to the day 1 control, and the percentage of cell growth in relation to the control was calculated using the following formula. (1) %Cell growth=Mean OD treatment−Mean OD day0/Mean OD control−Mean OD day0×100
The percentage of proliferation and their respective standard deviations were used to perform statistical analysis in GraphPad Prism software v 10 (GraphPad Software, San Diego, CA). Data were normalized to the day 0 control and to their own untreated 72 h control. These were transformed into logarithmic data, and log(inhibitor) versus response analysis was performed for obtaining the IC50 values per cell lines. Each experiment was conducted in triplicates.

[3] = system: peptide substrates specific to tyrosine kinases; assay: Kinase activity profiling, PamChip array, peptide substrates / other kinases; settings: PDAC‐3 primary cells, IC50 concentration, 2 h, Pamgene array
Description: as §1

Row | Compound | inhibition of cell migration (PATU‐T [1]) | inhibition of phosphorylation, CDK7 (decrease vs untreated controls) (CDK7) [%] | IC50 (PATU‐T [2]; SRB, 72 h of treatment, average ± SEM, triplicate) [nM] | inhibition of the other kinases (other than CDK7) [3] | IC50 (PATU‐T [2]; 72 h) [nM]
1 | Nc1ncnc2cc(-c3c[nH]c4ccc(Br)cc34)nn12 [Compound 1b, 7‐(5‐Bromo‐1H‐indol‐3‐yl)pyrazolo[1,5‐a][1,3,5]triazin‐4‐amine] | greatest inhibitory effect | 70 | 1400 ± 200 | below 50% | 
2 | Cn1cc(-c2cc3ncnc(N)n3n2)c2cc(Br)ccc21 [Compound 1g, 7‐(5‐Bromo‐1‐methyl‐1H‐indol‐3‐yl)pyrazolo[1,5‐a][1,3,5]triazin‐4‐amine] |  |  |  |  | 1300 ± 100
